# In patent US9187458B2, “Cyanoquinoline derivatives” (Tianjin Hemay Bio-Tech Co., LTD., priority 2010, dated 2015):
# Assays:
# A549 cells = assay: A549 Cell Growth Inhibition Test (MTT Assay); type: cell-based; conditions: Homo sapiens, 72 h incubation
# Experimental: A549 Cell Growth Inhibition Test (MTT Assay)
# 1. Cell strains: […] (human lung caner cell strains);
# Culture medium: 90% F12K+10% FBS;
# (§1) 1. A plate (10 cm) of cells in logarithmic growth phase normally cultured was collected;
# 2. The culture solution was sucked out. Tthe plate was washed with 5 ml of PBS 1-2 times;
# (§2) 3. PBS was sucked out. 2 ml of 0.25% pancreatin was added to infiltrate the cells for 1 min;
# (§3) 4. The pancreatin was sucked out. The culture plate was placed in an incubator. Digestion was carried out for about 2 min at 37° C.;
# (§4) 5. 4 ml of complete culture solution was added to the culture plate to stop the digestion. The cells were carefully scoured with micropipette (1 ml) to give a uniform cell suspension. The suspension was implanted into a 96-well cell culture plate by 2500 cells/100 μl per well. The culture plate was incubated overnight under 5% CO2 at 37° C. In day 2, 100 μl of culture solution comprising a compound was added in each well, and further incubated for 72 h under 5% CO2 at 37° C.
# (§5) 6. The culture solution was sucked out;
# (§6) 7. 100 μl of serum-free culture solution containing 0.5 mg/ml MTT was added in each well, and incubated for 3 h;
# (§7) 8. The culture solution was carefully sucked out;
# (§8) 9. 100 μl of DMSO was added in each well and vibrated to dissolve;
# (§9) 10. OD values were determined at 490 nM.
# (§10) 1. Calculation of Relative Inhibition Ratio The inhibition ratio of a compound on cell growth=(PC−n)/(PC−NC)×100%
# (§11) IC50: Concentration of a compound where inhibition ratio was 50%. IC50 values were fitted with Origin7.5.
# LoVo cells = assay: LoVo Cell Growth Inhibition Test (MTT Assay); type: cell-based; conditions: Homo sapiens, 72 h incubation
# Experimental: LoVo Cell Growth Inhibition Test (MTT Assay)
# 1. Cell strains: LoVo (human intestinal cancer cell strains);
# as §1
# (§12) 2. The culture solution was sucked out. The plate was washed with 5 ml of PBS 1-2 times;
# as §2
# 4. The pancreatin was sucked out. The culture plate was placed in an incubator. Digestion was carried out for about 4 min at 37° C.;
# as §4, with “added in” for “added to”, “by 3000-4000” for “by 2500”, “added into” for “added in”
# as §5
# (§13) 7. 100 μl of serum-free culture solution containing 0.5 mg/ml MTT was added in each well, and incubated for 4 h;
# as §7, §8, §9, §10, §11
# NCI-H460 cells = assay: NCI-H460 Cell Growth Inhibition Test (MTT Assay); type: cell-based; conditions: Homo sapiens, 72 h incubation
# Experimental: NCI-H460 Cell Growth Inhibition Test (MTT Assay)
# 1. Cell strains: NCI-H460 (human large cell lung cancer cell strains);
# as §1, §12, §2, §3, §4, §5, §6, §7, §8, §9, §10, §11
# Sk-Br-3 cells = assay: Sk-Br-3 Cell Growth Inhibition Test (SRB Assay); type: cell-based; conditions: Homo sapiens, 91 h incubation
# Experimental: Sk-Br-3 Cell Growth Inhibition Test (SRB Assay)
# 1. Cell strains: Sk-Br-3 (human breast cancer cell strains);
# 2. SRB: available from Sigmaaldrich, goods number: S9012, lot number: 047K3751. SRB was reserved at the room temperature. 0.4% (w/v) of working solution was formulated with 1% of glacial acetic acid. The solution was reserved at 4° C.; anti-tumor compounds; DMSO
# Culture medium: 90% DMEM+10% FBS;
# (§14) 1. A plate (10 cm) of cells in logarithmic growth phase normally cultured was collected. The culture solution was sucked out. The plate was washed with 5 mL of PBS 1-2 times;
# 2. PBS was sucked out. […] of 0.25% pancreatin was added to infiltrate the cells for 30 s;
# 3. The pancreatin was sucked out. The culture plate was placed in an incubator. Digestion was carried out for about 1.5-2 min at 37° C.;
# 4. 4 mL of complete culture solution was added to the culture plate to stop the digestion. The cells were carefully scoured with micropipette (1 ml) to give a uniform single cell suspension;
# 5. Cell suspension was counted. The suspension was diluted to 1×10^5/ml. The resulting suspension was developed uniformly on a plate by 10000 cells/100 μl per well. The culture plate was incubated overnight under 5% CO2 at 37° C. In day 2, 100 μl of culture solution comprising a compound was added in each well, and further incubated for 91 h under 5% CO2 at 37° C.
# (§15) 6. The culture solution was sucked out. 100 uL of TCA fixed cells which were diluted to 10% were added to each well. The plate was kept in a refrigerator for 1 h at 4° C.
# (§16) 7. TCA stationary liquid was sucked out. Each well was washed with 150 μL of ddH2O five times;
# (§17) 8. After the stationary liquid was cleansed, the plate was dried in the air at the room temperature;
# (§18) 9. 60 μL of SRB staining solution was added in each well. The well was stained for 15 min at the room temperature;
# (§19) 10. The SRB staining solution was sucked out. Each well was washed with 150 μL of 1% glacial acetic acid five times;
# (§20) 11. After the SRB staining solution was cleansed, the plate was dried in the air at the room temperature;
# (§21) 12. 100 μL of 10 mM Tris was added in each well. The plate was vibrated to dissolve out SRB;
# (§22) 13. OD values were determined at 570 nM.
# To: OD values of the starting content of cells when the cells were developed on a plate;
# PC: OD values of cells after normal growth in control wells without a compound;
# Ti: OD values of cells after growth in test wells with a compound;
# NC: Background OD values of blank well without a compound and cells
# Therefore: Ratio of cells in test wells to normal wells (% of control cell growth)=(Ti−To)/(PC−To)×100%
# Ratio GI50 was concentration of a compound at the point of 50%.
# Therefore: Ratio of killed cells to inoculated cells (% of killed cells)=(Ti−To)/(To−NC)×100%
# LC50 was concentration point of a compound when half of the starting inoculated concentration was reached.
# Concentration of a compound at this point is defined as TGI (total growth inhibition).
# AsPC-1 cells = assay: AsPC-1 Cell Growth Inhibition Test (MTT Assay); type: cell-based; conditions: Homo sapiens, ASPC1, 72 h incubation
# Experimental: AsPC-1 Cell Growth Inhibition Test (MTT Assay)
# Cell strains: AsPC-1 (human pancreatic cancer cell strains);
# as §1, §12
# (§23) 3. PBS was sucked out. 1.5 ml of 0.25% pancreatin was added to infiltrate the cells for 1 min;
# 4. The pancreatin was sucked out. The culture plate was placed in an incubator. Digestion was carried out for about 7.5 min at 37° C.;
# as §4, with “4.5” for “4”, “8000” for “2500”
# as §5, §6, §7
# (§24) 9. 100 μl of DMSO was added in each welland vibrated to dissolve;
# as §9, §10, §11
# A431 cells = assay: A431 Cell Growth Inhibition Test (MTT Assay); type: cell-based, human; conditions: Homo sapiens, A-431, 68 h incubation
# Experimental: A431 Cell Growth Inhibition Test (MTT Assay)
# 1. Cell strains: A431 (human epithelial […] cell strains);
# Culture medium: 45% DMEM, 45% F12+10% FBS;
# as §1, §12
# 3. PBS was sucked out, and 2 ml of 0.25% pancreatin was added to infiltrate the cells for 1 min;
# 4. The pancreatin was sucked out, and the culture plate was placed in an incubator. Digestion was carried out for about 15 min at 37° C.;
# as §4, with “added in” for “added to”, “comprising the” for “comprising a”, “for 68” for “for 72”
# as §5, §13, §7
# 9. 100 μl of DMSO was added into each well and vibrated to dissolve;
# as §9, §10
# IC50: concentration of a compound where inhibition ratio was 50%. IC50 values were fitted with Origin7.5.
# BT-474 cells = assay: BT-474 Cell Growth Inhibition Test (SRB Assay); type: cell-based, human; conditions: Homo sapiens, 70 h incubation
# Experimental: BT-474 Cell Growth Inhibition Test (SRB Assay)
# 1. Cell strains: BT-474 (human breast tumor cell strains);
# 2. SRB: available from Sigmaaldrich, goods number: S9012, lot number: 047K3751. SRB was reserved at the room temperature. 0.4% (w/v) of working solution was formulated with 1% of glacial acetic acid. The solution was reserved at the temperature of 4° C.; anti-tumor compounds; DMSO.
# Culture medium (90% EMEM+10% FBS+0.1 mM NEAA, reserved at 4° C.);
# as §14
# 2. PBS was sucked out, and […] of 0.25% pancreatin was added to infiltrate the cells for 30 s;
# 3. The pancreatin was sucked out. The culture plate was pleaced in an incubator. Digestion was carried out for about 5 min at 37° C.;
# 4. 3 mL of complete culture solution was added to the culture plate to stop the digestion. The cells were carefully scoured with micropipette (1 ml) to give a uniform single cell suspension;
# 5. Cell suspension was counted. The suspension was diluted to 1×10^5/ml. The resulting suspension was developed uniformly on a plate. The plate was incubated under 5% CO2 at 37° C. overnight. In day 2, 80 μL of complete culture medium was added in each well and then 20 μL of culture solution comprising a compound was added. The mixture was incubated for 70 h under 5% CO2 at 37° C.
# as §15, §16, §17, §18, §19, §20, §21, §22, §10, §11
# NCI-N87 cells = assay: NCI-N87 Cell Growth Inhibition Test (MTT Assay); type: cell-based; conditions: Homo sapiens, 72 h incubation
# Experimental: NCI-N87 Cell Growth Inhibition Test (MTT Assay)
# 1. Cell strains: NCI-N87 (human gastric carcinoma cell strains);
# as §1
# 2. The culture solution was sucked out. The plate was washed wtih 5 ml of PBS 1-2 times;
# as §23
# 4. The pancreatin was sucked out. The culture plate was placed in an incubator. Digestion was carried out for about 12 min at 37° C.;
# as §4, with “5. 4.5 ml of” for “5. 4 ml of”, “cell culture disc by 17000” for “cell culture plate by 2500”, “disc by 17000 cells/100 μl” for “plate by 2500 cells/100 μl”
# as §5, §6, §7, §24, §9
# 1. Calculation of Rrelative Inhibition Ratio The inhibition ratio of a compound on cell growth=(PC−n)/(PC−NC)×100%
# as §11
# Fadu cells = assay: Fadu Cell Growth Inhibition Test (MTT Assay); type: cell-based; conditions: Homo sapiens, 72 h incubation
# Experimental: Fadu Cell Growth Inhibition Test (MTT Assay)
# Cell strains: Fudu (human head and neck cancer cell strains);
# Culture medium: 90% EMEM+10% FBS;
# as §1, §12, §23
# 4. The pancreatin was sucked out. The culture plate was placed in an incubator. Digestion was carried out for about 5 min at 37° C.;
# as §4, with “4.5” for “4”, “6000” for “2500”
# as §5, §6, §7, §24, §9, §10, §11
IC50 (A549 cells) [nM],IC50 (LoVo cells) [nM],IC50 (NCI-H460 cells) [nM],IC50 (AsPC-1 cells) [nM],IC50 (A431 cells) [nM],IC50 (BT-474 cells) [nM],SMILES,GI50 (Sk-Br-3 cells) [nM],IC50 (NCI-N87 cells) [nM],IC50 (Fadu cells) [nM]
1500,1300,940,1400,–,–,"CN(C)C/C=C/C(=O)Nc1cc2c(Nc3ccc(OCc4ccc(C(C)(C)C)cc4)c(Cl)c3)c(C#N)cnc2cc1OC1CCOC1 (stereo not shown) [Example 14, (E)-N-(4-(4-(4-TERT-BUTYLBENZYLOXY)-3-CHLOROPHENYLAMINO)-3-CYANO-7-(TETRAHYDROFURAN-3-YL-OXY)QUINOLIN-6-YL)-4-(DIMETHYLAMINO)-BUT-2-ENAMIDE]",924,–,–
3700,–,3000,–,950,–,"CN(C)C/C=C/C(=O)Nc1cc2c(Nc3ccc(F)c(Cl)c3)c(C#N)cnc2cc1Oc1cccnc1 [Example 174, (E)-N-(4-(3-CHLORO-4-FLUOROPHENYLAMINO)-3-CYANO-7-(PYRIDIN-3-YL-OXY)QUINOLIN-6-YL)4-(DIMETHYLAMINO)-BUT-2-ENAMIDE]",–,–,–
–,–,–,–,162,12,"N#Cc1cnc2cc(O[C@H]3CCOC3)c(NC(=O)/C=C/CNCCCCCCO)cc2c1Nc1ccc(OCc2ccccn2)c(Cl)c1 [Example 154, (S,E)-N-(4-(3-CHLORO-4-(PYRIDIN-2-YL-METHOXY)PHENYLAMINO)-3-CYANO-7-(TETRAHYDROFURAN-3-YL-OXY)QUINOLIN-6-YL)-4-(6-HYDROXYHEXYLAMINO)-BUT-2-ENAMIDE]",38,41,324
